Measurements taken from the supplement of paper PMC8671470.

Columns and labels:
Conditions in all cases: 72 h
LAMA-84 = assay: cell viability (% survival relative to DMSO control, bortezomib = 0%); higher = less cytotoxic
Summary of the method: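 Percent survival figures are means of duplicate wells. They were obtained by CellTiter-Glo luminescence after 10 AML and 5 CML cell lines spent 72 h at 37 °C with 5% CO2 in 384-well plates with compounds at 1, 10, 100, 1000 or 10000 nM. Vehicle was set to 100% and a 10 µM positive control to 0%.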

[1] = test system: myeloid leukemia patient primary cells Pat.12; assay: cell viability (% survival relative to DMSO control); higher = less cytotoxic
Summary of the method: (§1)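 Where an area under the curve appears, it was computed with the drc and PharmacoGx R packages from log-logistic fits. Those fits used four parameters. The underlying viability data came from CellTiter-Glo after 72 h, normalised to DMSO and 10 μM proteasome-inhibitor wells, with thawed, Ficoll-purified AML or CML patient mononuclear cells at 10,000 cells/well in RPMI 1640 with 10% FBS on 384-well plates pre-printed with 70 compounds at five tenfold concentrations (1–10,000 nM) in duplicate.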

[2] = test system: myeloid leukemia patient primary cells Pat.11; assay: as above
Summary of the method: as §1

[3] = test system: myeloid leukemia patient primary cells Pat.15; assay: as above
Summary of the method: as §1

[4] = test system: myeloid leukemia patient primary cells Pat.10; assay: as above
Summary of the method: as §1

[5] = test system: myeloid leukemia patient primary cells Pat.6; assay: as above
Summary of the method: as §1

HL-60 = assay: cell viability (% survival relative to DMSO control); higher = less cytotoxic
Summary of the method: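 HL-60 cells grown in RPMI 1640 with 10% FBS were rescreened against the full library in 384-well plates, in duplicate, at five tenfold concentrations from 1 to 10,000 nM, alongside DMSO or 100 nM of one of three metabolic inhibitors for 72 h at 37 °C, 5% CO2. Reference wells contained DMSO or 10 μM proteasome inhibitor. Viability was read with CellTiter-Glo and normalised to these reference wells, and where reported, area under the curve was taken from four-parameter log-logistic fits in drc and PharmacoGx.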

[6] = test system: myeloid leukemia patient primary cells Pat.13; assay: area under dose-response curve (viability, 1 nM-10 uM) (fraction (0-1)); higher = more sensitive
Description: (§2)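 AUC (0–1, higher = more sensitive) of the 5-point dose–response (1 nM–10 µM, 72 h, CellTiter-Glo) in primary AML/CML patient mononuclear cells. 0.030103 is the floor for inactive compounds.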

[7] = test system: myeloid leukemia patient primary cells Pat.4; assay: as above
Description: as §2

[8] = test system: myeloid leukemia patient primary cells Pat.5; assay: as above
Description: as §2

[9] = test system: myeloid leukemia patient primary cells Pat.12; assay: as above
Description: as §2

[10] = test system: myeloid leukemia patient primary cells Pat.9; assay: as above
Description: as §2

[11] = test system: myeloid leukemia patient primary cells Pat.11; assay: as above
Description: as §2

[12] = test system: myeloid leukemia patient primary cells Pat.15; assay: as above
Description: as §2

[13] = test system: myeloid leukemia patient primary cells Pat.3; assay: as above
Description: as §2

[14] = test system: myeloid leukemia patient primary cells Pat.10; assay: as above
Description: as §2

[15] = test system: myeloid leukemia patient primary cells Pat.2; assay: as above
Description: as §2

[16] = test system: myeloid leukemia patient primary cells Pat.1; assay: as above
Description: as §2

[17] = test system: myeloid leukemia patient primary cells Pat.7; assay: as above
Description: as §2

[18] = test system: myeloid leukemia patient primary cells Pat.6; assay: as above
Description: as §2

[19] = test system: myeloid leukemia patient primary cells Pat.14; assay: as above
Description: as §2

[20] = test system: myeloid leukemia patient primary cells Pat.8; assay: as above
Description: as §2

O=C1O/C(=C/Br)CCC1c1cccc2ccccc12 (centres undefined) [Bromoenol Lactone]
cell viability [%]
Conditions	LAMA-84	[1]	[2]	[3]	[4]	[5]
1 nM	101	100	> 100	89.3	63.6	91.1
10 nM	99.2	> 100	94.6	91.6	47.6	89.2
100 nM	99.9	92.4	99.2	96.4	46.5	> 100
1000 nM	95.9	90.9	87.7	89	10.6	86
10000 nM	74	33.9	57.2	3.92	< 0	33.1

cell viability [%], HL-60
Conditions	0.001 µM	0.01 µM	0.1 µM	1 µM	10 µM
co-treatment: AZD3965 100 nM	95.1	97	98.2	96.796	93.5
co-treatment: DMSO vehicle	100	99.8	100	96.4	87.9
co-treatment: GSK2194069 100 nM	90.2	92.4	108	89.2	115
co-treatment: pictilisib 100 nM	96.5	106	110	101.3	104

Conditions	area under dose-response curve
[6]	0.0877
[7]	0.213
[8]	0.828
[9]	0.084
[10]	0.651
[11]	0.0656
[12]	0.132
[13]	0.447
[14]	0.515
[15]	0.0768
[16]	0.135
[17]	0.287
[18]	0.0918
[19]	0.324
[20]	0.0529

COC(=O)[C@]12CCC(C)(C)C[C@H]1[C@H]1C(=O)C=C3[C@@]4(C)C=C(C#N)C(=O)C(C)(C)[C@@H]4CC[C@@]3(C)[C@]1(C)CC2 [Bardoxolone methyl]
cell viability [%]
Conditions	LAMA-84	[1]	[2]	[3]	[4]	[5]
1 nM	98.9	97.3	> 100	95.2	82.4	99.8
10 nM	96.1	92.7	91.2	79.4	56	81.4
100 nM	107	77.3	87.7	21.8	11.8	75
1000 nM	106	95.8	> 100	69	2.87	17.6
10000 nM	86	52.6	7.29	0.4	91.9	72.1

cell viability [%], HL-60
Conditions	0.001 µM	0.01 µM	0.1 µM	1 µM	10 µM
co-treatment: AZD3965 100 nM	101	98	110	90.8	32.6
co-treatment: DMSO vehicle	102.3	97.6	101	97.8	107
co-treatment: GSK2194069 100 nM	100	92.7	104	88.8	54.3
co-treatment: pictilisib 100 nM	98.9	78.7	73.5	78.4	0.653

Conditions	area under dose-response curve
[6]	0.397
[7]	0.158
[8]	0.699
[9]	0.0322
[10]	0.813
[11]	0.111
[12]	0.207
[13]	0.618
[14]	0.589
[15]	0.28
[16]	0.183
[17]	0.705
[18]	0.345
[19]	0.433
[20]	0.328

C=C(C)[C@H]1Cc2c(ccc3c2O[C@@H]2COc4cc(OC)c(OC)cc4[C@@H]2C3=O)O1 [Rotenone]
cell viability [%]
Conditions	LAMA-84	[1]	[2]	[3]	[4]	[5]
1 nM	101	94.8	88.5	44.9	38.7	44.2
10 nM	87.5	89.2	93.3	66	75.5	75.4
100 nM	51.4	66.1	94.2	43.9	47.7	47.2
1000 nM	18.3	64.9	85.5	24.3	30	37.3
10000 nM	14.6	49.5	73.9	37.6	20.9	23.7

cell viability [%], HL-60
Conditions	0.001 µM	0.01 µM	0.1 µM	1 µM	10 µM
co-treatment: AZD3965 100 nM	96.5	99.7	83	83.4	7.8
co-treatment: DMSO vehicle	97.7	103	86.415	30.8	10.4
co-treatment: GSK2194069 100 nM	86.2	91.1	78.3	35.8	12.9
co-treatment: pictilisib 100 nM	83.6	74.5	83.9	34.5	9.82

Conditions	area under dose-response curve
[6]	0.391
[7]	0.187
[8]	0.99
[9]	0.0808
[10]	0.55
[11]	< 0.0301
[12]	0.465
[13]	0.57
[14]	0.411
[16]	0.112
[17]	0.329
[18]	0.399
[19]	0.41
[20]	0.322
